Data reported in paper PMC9561422 (Clinical and Translational Medicine, 2022).
“Also recorded” adds a separate entry of the source. Where two headings read alike, the source gives them in different places. Blank lines part the entries; values can stand above or below the substance they belong to. Ends that are not written are not given here.

Experiments:
liver homogenate = settings: C57BL/6 mice
faeces homogenate = settings: C57BL/6 mice
kidney homogenate = settings: C57BL/6 mice
muscle homogenate = settings: C57BL/6 mice
[1] = colon homogenate (incl. caecum); settings: C57BL/6 mice
human myotubes = settings: MTT dose-response curve
Method: (§1) Initially, MTT concentration‐response experiments in murine and human myoblasts as well as in myotubes were performed.
(§2) The 95% confidence interval of this curve is shown as grey area. IC10 is shown as a red vertical line.

C2C12 myotubes = settings: Murine myotubes, MTT dose-response curve
Method: as §1, §2
(§3) Data are means ± SEM. […] (D–F) Data are means ± SEM. *p < .05; **p < .01; ***p < .001; two‐tailed Welch's t‐test. […] The exponent is read as -7; the minus sign and the digit are not certain. / Panel A: no compound label is printed beside the value. 'QSP' comes from the y-axis title of the same panel.

C2C12 myoblasts = settings: Murine myoblasts, MTT dose-response curve
Method: as §1
(§4) Supplementary Figure 1. […] A) C2C12 myoblasts; B) human myoblasts. The x-axis indicates the different QSP concentrations, while the y-axis represents MTT reduction relative to placebo (placebo = 1.0). Squares (+ error bars) are means (+ SEM) of n=8-10 for each concentration, with the curve representing the best fitting 3-parameter logistic model around the means. The 95% confidence interval of this curve is shown as grey area. IC10 is shown as a red vertical line.

human myoblasts = test system: human myoblasts
Method: as §1, §4

C. elegans = settings: adult worms treated once with 1 µM; n = 341, 5 independent experiments
Source text: Data presented are means ± SEM. * P < 0.05; ** P < 0.01 and *** P < 0.001; Welch’s 2-sided t-test with placebo as reference.DACBSupplementary Figure 2

in vitro = settings: human, Caco-2
Source text: as §3
(§5) [picture] Supplementary Figure 5. […] Data are means ± SEM.Supplementary Figure 5

CaCo‐2 monolayer = assay: in vitro; settings: CaCo-2 monolayer, apical-basal, 4°C, n = 6
Source text: as §3, §5

[2] = ex vivo
Method: The powdered medium is dissolved in 900 mL water while stirring. To this solution, 0.3790 g CaCl2×2H2O and 2.098 g NaHCO3 are subsequently added while stirring. NaOH or HCl was used to adjust to pH 7.4. This solution is then further diluted to 1000 mL using ultrapure water.
The blood was collected in a 1.5 mL Eppendorf tube after decapitating the mouse. The blood of the 4 mice was pooled and centrifuged for 10 min at 1000 g at 5 °C. The supernatant (serum) was transferred to a 500 µL Eppendorf and was immediately frozen and stored at -35 °C.
The liver (5.0070 g) was collected from four C57BL/6 mice after cervical dislocation. After cleaning and rinsing the organ using ice-cold KH buffer, the liver was cut in little pieces and transferred into a 50 mL tube to which 36 mL ice-cold KH buffer was added. The liver was then homogenized with mixer. After the larger particles were allowed to settle for about 30 minutes at 5 °C, approximately 25 mL of the middle layer was transferred into a 50 mL Falcon tube using a plastic pipette. After shaking the homogenate, the homogenate was dispensed into ten 2 mL Eppendorf tubes, and stored at -35 °C until use. The protein content of the homogenate was determined to be 18.24 mg/mL using the Pierce Modified Lowry Protein Assay method. Just before use, the homogenate was diluted to a protein concentration of 0.6 mg/mL (i.e. 300 µg / 500 µl) by the addition of 29.4 mL of KH buffer to 1000 µl of the homogenate.
The kidneys (1.4143 g) were collected from four C57BL/6 mice after cervical dislocation. After cleaning and rinsing the organs using ice-cold KH buffer, the kidneys were cut in little pieces and transferred into a 50 mL tube to which 24 mL ice-cold KH buffer was added. The kidneys were then homogenized with mixer. After the larger particles were allowed to settle for about 30 minutes at 5 °C, approximately 10 mL of the middle layer was transferred into a 50 mL Falcon tube using a plastic pipette. After shaking the homogenate, the homogenate was dispensed into five 2 mL Eppendorf tubes, and stored at -35 °C until use. The protein content of the homogenate was determined to be 5.92 mg/mL using the Pierce Modified Lowry Protein Assay method. Just before use, the homogenate was diluted to a protein concentration of 0.6 mg/mL (i.e. 300 µg / 500 µl) by the addition of 8.87 mL of KH buffer to 1000 µl of the homogenate.
The colons (incl. caecum) (1.4174 g) were collected from four C57BL/6 mice after cervical dislocation. After cleaning and rinsing the organs using ice-cold KH buffer, the colons were cut in little pieces and transferred into a 15 mL tube to which 5 mL ice-cold KH buffer was added. The colons were then homogenized with mixer. After the larger particles were allowed to settle for about 30 minutes at 5 °C, approximately 2 mL of the middle layer was dispensed into a 2 mL Eppendorf tube, and stored at -35 °C until use. The protein content of the homogenate was determined to be 2.35 mg/mL using the Pierce Modified Lowry Protein Assay method. Just before use, the homogenate was diluted to a protein concentration of 0.6 mg/mL (i.e. 300 µg / 500 µl) by the addition of 2.92 mL of KH buffer to 1000 µl of the homogenate.
Fresh faeces (0.1810 g) was collected from four C57BL/6 mice. The faeces was then cut in little pieces and transferred into a 15 mL tube to which 5 mL ice-cold KH buffer was added. […] The protein content of the homogenate was determined to be 1.48 mg/mL using the Pierce Modified Lowry Protein Assay method. […]

C2C12 myoblast = assay: Viability assays other than MTT on C2C12 myoblasts; format: cell-based, murine; settings: 1 µM; trypan blue, Hoechst/PI, LDH release, Bax/Bcl2, Apotox assay
[3] = germ-free mice inoculated with genetically modified E. coli continuously producing iAM373
Source text: as §3

fragment found (liver homogenate): FTLVA, major
fragment found (faeces homogenate): SIF, major
fragment found (kidney homogenate): SIFT, major; also recorded: SIFTL, major
fragment found (muscle homogenate): SIFTL, major
fragment found [1]: SIFTL, major
Substance: SIFTLVA

Substance: SIFTLVA [iAM373]
IC50 (human myotubes): 5.4 nM
IC50 (C2C12 myotubes): 13 nM
IC50 (C2C12 myoblasts): 61 nM
IC50 (human myoblasts; Human myoblasts, MTT dose-response curve): 180 nM
IC90 (human myoblasts; human myoblasts, MTT): 930 nM
effect on survival of C. elegans (C. elegans): without a clear effect on survival
Papp A→B (in vitro): 0.14 ×10⁻⁶ cm/s
apical‐basal permeability coefficient (Papp) (CaCo‐2 monolayer): 0.87×10^–7 cm/s
Main metabolite at approx. T1/2 ([2]; murine colon homogenate): SIFTL (180 min)
Main metabolite at approx. T1/2 ([2]; murine faeces homogenate): SIF (60 min)
Main metabolite at approx. T1/2 ([2]; murine kidney homogenate): SIFT (30 min) SIFTL (30 min)
Main metabolite at approx. T1/2 ([2]; murine liver homogenate): FTLVA (180 min)
Main metabolite at approx. T1/2 ([2]; murine muscle homogenate): SIFTL (180 min)
cytotoxic or cytostatic effect in viability assays other than MTT (C2C12 myoblast): did not show a clear cytotoxic or cytostatic effect
presence in blood circulation after oral gavage of iAM373-producing E. coli [3]: detected in the blood circulation
estimated plasma concentration in iAM373-positive older residents: 453 pM
